# System: NT2/D1-R1 control and DNMT3B knockdown cells
# Assay: Genome-wide expression analysis with PAM clusters, control and DNMT3B knockdown cells (Tables 8-14)
# Conditions: sh-Ctrl + aza, NT2/D1-R1, decitabine 10 nM 3 days
smiles,measurement,setting,value
Nc1ncn([C@H]2C[C@H](O)[C@@H](CO)O2)c(=O)n1 [aza],"ACSS2 (NM_0010765) gene expression, Mean",,354.703
same,"ADCK1 (NM_020421) gene expression, Mean",,203.584
same,"ADCY1 (NM_021116) gene expression, Mean",,106.028
same,"AGAP1 (NM_014914) gene expression, Mean",,188.156
same,"AK056312 gene expression, Mean",,293.846
same,"ANKRD9 (NM_152326) gene expression, Mean",,614.423
same,"APEH (NM_001640) gene expression, Mean",,720.135
same,"APP (NM_201414) gene expression, Mean",,326.901
same,"C1orf115 (NM_024709) gene expression, Mean",,213.203
same,"C2orf34 (NM_024766) gene expression, Mean",,205.5
same,"C7orf47 (NM_145030) gene expression, Mean",,466.635
same,"C16orf35 (NM_0010394) gene expression, Mean",,630.186
same,"CA4 (NM_000717) gene expression, Mean",,1449.98
same,"CACNA2D2 (NM_006030) gene expression, Mean",,304.761
same,"CD24 (NM_013230) gene expression, Mean",,1797.88
same,"CD248 (NM_020404) gene expression, Mean",,178.853
same,"CDC42EP5 (NM_145057) gene expression, Mean",,219.473
same,"CDH3 (NM_001793) gene expression, Mean",,651.295
same,"CEBPB (NM_005194) gene expression, Mean",,1388.19
same,"CHST13 (NM_152889) gene expression, Mean",,151.937
same,"CLASP1 (NM_015282) gene expression, Mean",,301.334
same,"CLIP2 (NM_032421) gene expression, Mean",,175.136
same,"COMMD1 (NM_152516) gene expression, Mean",,235.362
same,"COMMD7 (NM_0010993) gene expression, Mean",,915.427
same,"CRMP1 (NM_0010148) gene expression, Mean",,328.665
same,"CTNNBIP1 (NM_020248) gene expression, Mean",,144.946
same,"CXCL16 (NM_022059) gene expression, Mean",,279.669
same,"CYP2F1 (NM_000774) gene expression, Mean",,126.222
same,"CYP2S1 (NM_030622) gene expression, Mean",,604.679
same,"DBC1 (NM_014618) gene expression, Mean",,197.271
same,"DDIT4 (NM_019058) gene expression, Mean",,522.11
same,"DGKQ (NM_001347) gene expression, Mean",,247.199
same,"DLL3 (NM_016941) gene expression, Mean",,120.925
same,"DPYSL3 (NM_001387) gene expression, Mean",,602.964
same,"DYM (NM_017653) gene expression, Mean",,217.362
same,"DYSF (NM_003494) gene expression, Mean",,188.291
same,"EEF2K (NM_013302) gene expression, Mean",,243.652
same,"EPHA1 (NM_005232) gene expression, Mean",,497.427
same,"EVI5L (NM_145245) gene expression, Mean",,247.813
same,"EVL (NM_016337) gene expression, Mean",,537.424
same,"EXTL3 (NM_001440) gene expression, Mean",,695.163
same,"F11R (NM_016946) gene expression, Mean",,182.523
same,"FAF1 (NM_007051) gene expression, Mean",,209.978
same,"FAM125A (NM_138401) gene expression, Mean",,564.523
same,"FAM127A (NM_0010781) gene expression, Mean",,867.222
same,"FCGBP (NM_003890) gene expression, Mean",,247.577
same,"FDFT1 (NM_004462) gene expression, Mean",,417.59
same,"FIGNL2 (NM_0010136) gene expression, Mean",,231.29
same,"FLNB (NM_001457) gene expression, Mean",,679.266
same,"FOXN3 (NM_005197) gene expression, Mean",,274.017
same,"GAL (NM_015973) gene expression, Mean",,1375.17
same,"GAS7 (NM_201433) gene expression, Mean",,225.598
same,"GLG1 (NM_012201) gene expression, Mean",,958.607
same,"GRAMD1A (NM_020895) gene expression, Mean",,767.701
same,"GTF3C1 (NM_001520) gene expression, Mean",,387.976
same,"HCFC1R1 (NM_0010020) gene expression, Mean",,427.673
same,"HESX1 (NM_003865) gene expression, Mean",,204.885
same,"HINT2 (NM_032593) gene expression, Mean",,537.794
same,"HIST3H2A (NM_033445) gene expression, Mean",,314.077
same,"HIST4H4 (NM_003541) gene expression, Mean",,218.72
same,"HK1 (NM_033500) gene expression, Mean",,3617.1
same,"IDH1 (NM_005896) gene expression, Mean",,668.525
same,"IL21R (NM_181078) gene expression, Mean",,154.278
same,"JPH3 (NM_020655) gene expression, Mean",,167.797
same,"KIF1A (NM_004321) gene expression, Mean",,160.071
same,"KIF1B (NM_015074) gene expression, Mean",,252.94
same,"LDB2 (NM_001290) gene expression, Mean",,202.228
same,"LDOC1 (NM_012317) gene expression, Mean",,502.418
same,"LHFPL4 (NM_198560) gene expression, Mean",,215.926
same,"LONP1 (NM_004793) gene expression, Mean",,779.763
same,"LPCAT3 (NM_005768) gene expression, Mean",,477.318
same,"LRBA (NM_006726) gene expression, Mean",,170.16
same,"LRRC33 (NM_198565) gene expression, Mean",,145.858
same,"MAPK3 (NM_0010400) gene expression, Mean",,277.581
same,"MAPKAP1 (NM_0010066) gene expression, Mean",,182.648
same,"MED30 (NM_080651) gene expression, Mean",,647.26
same,"MID1IP1 (NM_021242) gene expression, Mean",,649.056
same,"MKRN1 (NM_013446) gene expression, Mean",,2856.3
same,"MSRB2 (NM_012228) gene expression, Mean",,934.409
same,"MYO5C (NM_018728) gene expression, Mean",,151.991
same,"NANOG (NM_024865) gene expression, Mean",,706.99
same,"NCOR2 (NM_006312) gene expression, Mean",,493.089
same,"NDUFS4 (NM_002495) gene expression, Mean",,337.053
same,"NFE2L3 (NM_004289) gene expression, Mean",,222.942
same,"NGFRAP1 (NM_206917) gene expression, Mean",,1121.05
same,"NKX3-2 (NM_001189) gene expression, Mean",,409.938
same,"NM_014745 gene expression, Mean",,379.916
same,"NPAS1 (NM_002517) gene expression, Mean",,201.893
same,"NPTX2 (NM_002523) gene expression, Mean",,367.499
same,"ODZ3 (NM_0010804) gene expression, Mean",,189.247
same,"P4HB (NM_000918) gene expression, Mean",,1383.99
same,"PACSIN1 (NM_020804) gene expression, Mean",,216.839
same,"PCDH19 (NM_020766) gene expression, Mean",,151.727
same,"PCK2 (NM_0010180) gene expression, Mean",,116.02
same,"PDZD4 (NM_032512) gene expression, Mean",,182.348
same,"PEMT (NM_148172) gene expression, Mean",,595.006
same,"PEX14 (NM_004565) gene expression, Mean",,250.351
same,"PGM1 (NM_002633) gene expression, Mean",,1814.18
same,"PHC1 (NM_004426) gene expression, Mean",,951.052
same,"PIM2 (NM_006875) gene expression, Mean",,985.879
same,"PITPNC1 (NM_181671) gene expression, Mean",,180.093
same,"PNKP (NM_007254) gene expression, Mean",,424.886
same,"PPAP2A (NM_176895) gene expression, Mean",,348.062
same,"PPP1R1B (NM_181505) gene expression, Mean",,238.675
same,"PQLC3 (NM_152391) gene expression, Mean",,198.571
same,"PRSS8 (NM_002773) gene expression, Mean",,991.013
same,"PSAT1 (NM_021154) gene expression, Mean",,1824.54
same,"PTOV1 (NM_017432) gene expression, Mean",,720.62
same,"PTPLA (NM_014241) gene expression, Mean",,227.16
same,"RAB3IP (NM_175624) gene expression, Mean",,601.056
same,"RALY (NM_007367) gene expression, Mean",,833.663
same,"RASIP1 (NM_017805) gene expression, Mean",,185.874
same,"RASL11B (NM_023940) gene expression, Mean",,432.564
same,"RCN2 (NM_002902) gene expression, Mean",,501.026
same,"REEP6 (NM_138393) gene expression, Mean",,405.813
same,"RNF130 (NM_018434) gene expression, Mean",,174.702
same,"ROD1 (NM_005156) gene expression, Mean",,637.491
same,"RPS6KA2 (NM_0010069) gene expression, Mean",,141.693
same,"SAT1 (NM_002970) gene expression, Mean",,1895.82
same,"SCARB1 (NM_005505) gene expression, Mean",,433.694
same,"SEMA4B (NM_198925) gene expression, Mean",,288.428
same,"SEMA4D (NM_006378) gene expression, Mean",,315.221
same,"SEMA6B (NM_032108) gene expression, Mean",,218.592
same,"SH2B3 (NM_005475) gene expression, Mean",,424.579
same,"SLC3A2 (NM_0010132) gene expression, Mean",,898.448
same,"SLC8A2 (NM_015063) gene expression, Mean",,166.295
same,"SLC16A10 (NM_018593) gene expression, Mean",,159.709
same,"SLC22A23 (NM_021945) gene expression, Mean",,233.534
same,"SND1 (NM_014390) gene expression, Mean",,423.122
same,"SOX2 (NM_003106) gene expression, Mean",,271.23
same,"SPRY1 (NM_005841) gene expression, Mean",,248.973
same,"SPSB2 (NM_032641) gene expression, Mean",,474.363
same,"SRPX (NM_006307) gene expression, Mean",,222.901
same,"SURF6 (NM_006753) gene expression, Mean",,1293.98
same,"TBCD (NM_005993) gene expression, Mean",,256.961
same,"TCEA2 (NM_198723) gene expression, Mean",,483.559
same,"TCF7L1 (NM_031283) gene expression, Mean",,144.548
same,"TIMP4 (NM_003256) gene expression, Mean",,389.521
same,"TMC6 (NM_007267) gene expression, Mean",,346.392
same,"TMEM145 (NM_173633) gene expression, Mean",,166.627
same,"TPST2 (NM_0010085) gene expression, Mean",,370.953
same,"TRAPPC9 (NM_031466) gene expression, Mean",,104.733
same,"TSPAN9 (NM_006675) gene expression, Mean",,1313.95
same,"TUBB4 (NM_006087) gene expression, Mean",,253.587
same,"UBE2E2 (NM_152653) gene expression, Mean",,347.293
same,"UNC84B (NM_015374) gene expression, Mean",,465.92
same,"VCX2 (NM_016378) gene expression, Mean",,415.874
same,"VCX3A (NM_016379) gene expression, Mean",,1237.23
same,"VCX3B (NM_0010018) gene expression, Mean",,1368.4
same,"VSNL1 (NM_003385) gene expression, Mean",,249.848
same,"WDR8 (NM_017818) gene expression, Mean",,619.054
same,"XBP1 (NM_0010795) gene expression, Mean",,505.041
same,"XM_373896 gene expression, Mean",,276.846
same,"XM_926633 gene expression, Mean",,1782.67
same,"XM_932919 gene expression, Mean",,283.159
same,"XM_933796 gene expression, Mean",,270.602
same,"XM_943677 gene expression, Mean",,245.788
same,"ZBTB46 (NM_025224) gene expression, Mean",,207.588
same,"ZSWIM4 (NM_023072) gene expression, Mean",,393.591
same,"HIST1H2BK (NM_080593) gene expression, Mean",first HIST1H2BK entry (r906),1316.1
same,"TRPC4AP (NM_015638) gene expression, Mean",first TRPC4AP entry (r880),633.52
same,"HIST1H2BK (NM_080593) gene expression, Mean",second HIST1H2BK entry (r952),332.966
same,"TRPC4AP (NM_015638) gene expression, Mean",second TRPC4AP entry (r892),1094.19
